# Measured values reported in ChEMBL document CHEMBL4627293, “Synthesis and in vitro activity of asymmetric indole-based bisamidine compounds against Gram-positive and Gram-negative pathogens” (2020).
# Assays:
# Assay type in all cases: functional
# [1] = system: Staphylococcus epidermidis; experiment: Antimicrobial activity against methicillin-susceptible Staphylococcus epidermidis ATCC 12228
# [2] = system: Enterococcus faecium; experiment: Antimicrobial activity against vancomycin-resistant Enterococcus faecium ATCC 700221
# [3] = system: Citrobacter freundii; experiment: Antimicrobial activity against Citrobacter freundii ATCC 43864
# [4] = system: Providencia rettgeri; experiment: Antimicrobial activity against Providencia rettgeri ATCC 31052
# [5] = system: Klebsiella pneumoniae; experiment: Antimicrobial activity against Klebsiella pneumoniae 7
# [6] = system: Staphylococcus aureus; experiment: Antimicrobial activity against methicillin-sensitive Staphylococcus aureus ATCC 29213
# [7] = system: Enterococcus faecalis; experiment: Antimicrobial activity against Vancomycin-resistant Enterococcus faecalis ATCC 51299
# [8] = system: Staphylococcus aureus; experiment: Antimicrobial activity against methicillin- resistant Staphylococcus aureus ATCC 33591
# [9] = system: Escherichia coli; experiment: Antimicrobial activity against Escherichia coli ATCC 25922
# [10] = system: Klebsiella pneumoniae; experiment: Antimicrobial activity against ESBL-producing Klebsiella pneumoniae ATCC 700603
# [11] = system: Enterococcus faecalis; experiment: Antimicrobial activity against Vancomycin-sensitive Enterococcus faecalis ATCC 29212
# [12] = system: Pseudomonas aeruginosa; experiment: Antimicrobial activity against Pseudomonas aeruginosa ATCC 27853
# [13] = system: Acinetobacter calcoaceticus; experiment: Antimicrobial activity against Acinetobacter calcoaceticus ATCC 19606
# [14] = system: Klebsiella pneumoniae; experiment: Antimicrobial activity against NDM-1 producing Klebsiella pneumoniae ATCC BAA-2146
# [15] = system: Proteus vulgaris; experiment: Antimicrobial activity against Proteus vulgaris ATCC 29905
# [16] = system: Klebsiella aerogenes; experiment: Antimicrobial activity against Enterobacter aerogenes ATCC 45102
SMILES,MIC [1],MIC [2],MIC [3],MIC [4],MIC [5],MIC [6],MIC [7],MIC [8],MIC [9],MIC [10],MIC [11],MIC [12],MIC [13],MIC [14],MIC [15],MIC [16]
CN(C)C(=N)c1ccc2cc(-c3ccc(Oc4ccc(-c5cc6ccc(C(=N)N(C)C)cc6[nH]5)cc4)cc3)[nH]c2c1,0.125 µg/mL,2 µg/mL,8 µg/mL,8 µg/mL,8 µg/mL,0.25 µg/mL,1 µg/mL,0.25 µg/mL,4 µg/mL,8 µg/mL,0.5 µg/mL,128 µg/mL,> 128 µg/mL,8 µg/mL,8 µg/mL,
CNC(=N)c1ccc2cc(-c3ccc(Oc4ccc(-c5cc6ccc(C(=N)NC)cc6[nH]5)cc4)cc3)[nH]c2c1,,,> 128 µg/mL,> 128 µg/mL,,1 µg/mL,1 µg/mL,1 µg/mL,128 µg/mL,> 128 µg/mL,1 µg/mL,> 128 µg/mL,,> 128 µg/mL,> 128 µg/mL,> 128 µg/mL
CNC(=N)c1ccc2cc(-c3ccc(Oc4ccc(-c5cc6ccc(C(=N)NC)cc6[nH]5)c(C(F)(F)F)c4)cc3)[nH]c2c1,0.25 µg/mL,0.5 µg/mL,8 µg/mL,32 µg/mL,8 µg/mL,0.5 µg/mL,1 µg/mL,0.5 µg/mL,4 µg/mL,16 µg/mL,0.5 µg/mL,64 µg/mL,32 µg/mL,8 µg/mL,16 µg/mL,
CC(C)NC(=N)c1ccc2cc(-c3ccc(Oc4ccc(-c5cc6ccc(C(=N)NC(C)C)cc6[nH]5)nc4)cc3)[nH]c2c1,0.125 µg/mL,0.25 µg/mL,4 µg/mL,4 µg/mL,8 µg/mL,0.25 µg/mL,0.5 µg/mL,0.125 µg/mL,2 µg/mL,8 µg/mL,0.25 µg/mL,64 µg/mL,16 µg/mL,8 µg/mL,8 µg/mL,
CNC(=N)c1ccc2cc(-c3ccc(Oc4ccc(-c5cc6ccc(C(=N)NC)cc6[nH]5)c(OC)c4)cc3)[nH]c2c1,0.25 µg/mL,1 µg/mL,32 µg/mL,> 128 µg/mL,64 µg/mL,1 µg/mL,0.5 µg/mL,1 µg/mL,16 µg/mL,128 µg/mL,0.5 µg/mL,> 128 µg/mL,> 128 µg/mL,32 µg/mL,128 µg/mL,
CNC(=N)c1ccc2cc(-c3ccc(Oc4ccc(-c5cc6ccc(C(=N)NC)cc6[nH]5)c(Cl)c4)cc3)[nH]c2c1,2 µg/mL,8 µg/mL,64 µg/mL,128 µg/mL,64 µg/mL,4 µg/mL,16 µg/mL,4 µg/mL,64 µg/mL,64 µg/mL,16 µg/mL,128 µg/mL,128 µg/mL,64 µg/mL,64 µg/mL,
CN(C)C(=N)c1ccc2cc(-c3ccc(Oc4ccc(-c5cc6ccc(C(=N)N(C)C)cc6[nH]5)c(C(F)(F)F)c4)cn3)[nH]c2c1,0.5 µg/mL,1 µg/mL,16 µg/mL,128 µg/mL,32 µg/mL,1 µg/mL,2 µg/mL,0.5 µg/mL,8 µg/mL,32 µg/mL,2 µg/mL,> 128 µg/mL,> 128 µg/mL,32 µg/mL,32 µg/mL,
CC(C)NC(=N)c1ccc2cc(-c3ccc(Oc4ccc(-c5cc6ccc(C(=N)NC(C)C)cc6[nH]5)cn4)cc3)[nH]c2c1,0.25 µg/mL,0.25 µg/mL,8 µg/mL,16 µg/mL,8 µg/mL,0.25 µg/mL,1 µg/mL,0.25 µg/mL,4 µg/mL,8 µg/mL,1 µg/mL,32 µg/mL,64 µg/mL,16 µg/mL,16 µg/mL,
CC(C)NC(=N)c1ccc2cc(-c3ccc(Oc4ccc(-c5cc6ccc(C(=N)NC(C)C)cc6[nH]5)c(Cl)c4)cc3)[nH]c2c1,1 µg/mL,8 µg/mL,> 128 µg/mL,> 128 µg/mL,> 128 µg/mL,8 µg/mL,16 µg/mL,8 µg/mL,128 µg/mL,> 128 µg/mL,16 µg/mL,> 128 µg/mL,> 128 µg/mL,> 128 µg/mL,> 128 µg/mL,
CN(C)C(=N)c1ccc2cc(-c3ccc(Oc4ccc(-c5cc6ccc(C(=N)N(C)C)cc6[nH]5)c(C(F)(F)F)c4)cc3)[nH]c2c1,2 µg/mL,8 µg/mL,64 µg/mL,> 128 µg/mL,> 128 µg/mL,2 µg/mL,8 µg/mL,2 µg/mL,64 µg/mL,> 128 µg/mL,8 µg/mL,> 128 µg/mL,> 128 µg/mL,> 128 µg/mL,128 µg/mL,
CC(C)NC(=N)c1ccc2cc(-c3ccc(Oc4ccc(-c5cc6ccc(C(=N)NC(C)C)cc6[nH]5)c(C(F)(F)F)c4)cc3)[nH]c2c1,2 µg/mL,2 µg/mL,16 µg/mL,64 µg/mL,16 µg/mL,2 µg/mL,2 µg/mL,2 µg/mL,16 µg/mL,16 µg/mL,2 µg/mL,32 µg/mL,64 µg/mL,16 µg/mL,16 µg/mL,
C/N=C(\NC)c1ccc2cc(-c3ccc(Oc4ccc(-c5cc6ccc(C(=N)NC)cc6[nH]5)cc4)cc3)[nH]c2c1,,,128 µg/mL,128 µg/mL,,0.5 µg/mL,0.25 µg/mL,0.25 µg/mL,16 µg/mL,64 µg/mL,1 µg/mL,64 µg/mL,,32 µg/mL,128 µg/mL,64 µg/mL
CNC(=N)c1ccc2cc(-c3ccc(Oc4ccc(-c5cc6ccc(C(=N)NC)cc6[nH]5)nc4)cc3)[nH]c2c1,0.25 µg/mL,1 µg/mL,16 µg/mL,128 µg/mL,64 µg/mL,2 µg/mL,2 µg/mL,2 µg/mL,16 µg/mL,64 µg/mL,2 µg/mL,64 µg/mL,> 128 µg/mL,64 µg/mL,128 µg/mL,
CNC(=N)c1ccc2cc(-c3ccc(Oc4ccc(-c5cc6ccc(C(=N)NC)cc6[nH]5)c(C(F)(F)F)c4)cn3)[nH]c2c1,0.25 µg/mL,0.5 µg/mL,16 µg/mL,64 µg/mL,16 µg/mL,0.5 µg/mL,1 µg/mL,0.5 µg/mL,8 µg/mL,32 µg/mL,1 µg/mL,64 µg/mL,64 µg/mL,16 µg/mL,64 µg/mL,
CN(C)C(=N)c1ccc2cc(-c3ccc(Oc4ccc(-c5cc6ccc(C(=N)N(C)C)cc6[nH]5)c(Cl)c4)cc3)[nH]c2c1,2 µg/mL,16 µg/mL,64 µg/mL,> 128 µg/mL,> 128 µg/mL,8 µg/mL,16 µg/mL,2 µg/mL,32 µg/mL,> 128 µg/mL,16 µg/mL,> 128 µg/mL,> 128 µg/mL,128 µg/mL,128 µg/mL,
CN(C)C(=N)c1ccc2cc(-c3ccc(Oc4ccc(-c5cc6ccc(C(=N)N(C)C)cc6[nH]5)cn4)cc3)[nH]c2c1,0.25 µg/mL,1 µg/mL,4 µg/mL,8 µg/mL,4 µg/mL,0.5 µg/mL,2 µg/mL,0.25 µg/mL,4 µg/mL,8 µg/mL,2 µg/mL,64 µg/mL,128 µg/mL,8 µg/mL,8 µg/mL,
CC(C)NC(=N)c1ccc2cc(-c3ccc(Oc4ccc(-c5cc6ccc(C(=N)NC(C)C)cc6[nH]5)c(C(F)(F)F)c4)cn3)[nH]c2c1,0.5 µg/mL,0.5 µg/mL,8 µg/mL,32 µg/mL,16 µg/mL,0.5 µg/mL,0.5 µg/mL,0.5 µg/mL,8 µg/mL,16 µg/mL,0.5 µg/mL,32 µg/mL,32 µg/mL,16 µg/mL,16 µg/mL,
CNC(=N)c1ccc2cc(-c3ccc(Oc4ccc(-c5cc6ccc(C(=N)NC)cc6[nH]5)cn4)cc3)[nH]c2c1,0.125 µg/mL,0.25 µg/mL,128 µg/mL,> 128 µg/mL,128 µg/mL,0.25 µg/mL,1 µg/mL,0.25 µg/mL,16 µg/mL,> 128 µg/mL,1 µg/mL,> 128 µg/mL,128 µg/mL,> 128 µg/mL,> 128 µg/mL,
COc1cc(Oc2ccc(-c3cc4ccc(C(=N)NC(C)C)cc4[nH]3)cc2)ccc1-c1cc2ccc(C(=N)NC(C)C)cc2[nH]1,0.125 µg/mL,0.25 µg/mL,32 µg/mL,64 µg/mL,64 µg/mL,0.25 µg/mL,1 µg/mL,0.25 µg/mL,16 µg/mL,64 µg/mL,0.25 µg/mL,128 µg/mL,> 128 µg/mL,64 µg/mL,64 µg/mL,
CN[C@H](CC(C)C)C(=O)N[C@H]1C(=O)N[C@@H](CC(N)=O)C(=O)N[C@H]2C(=O)N[C@H]3C(=O)N[C@H](C(=O)N[C@H](C(=O)O)c4cc(O)cc(O)c4-c4cc3ccc4O)[C@H](O)c3ccc(c(Cl)c3)Oc3cc2cc(c3O[C@@H]2O[C@H](CO)[C@@H](O)[C@H](O)[C@H]2O[C@H]2C[C@](C)(N)[C@H](O)[C@H](C)O2)Oc2ccc(cc2Cl)[C@H]1O [VANCOMYCIN],0.5 µg/mL,,,,,,,,,,1 µg/mL,,,,,
